Data set [1] has as its target SERT (Homo sapiens, UniProt P31645). Briefly: SERT Cellular Functional assay. In kind it is cell-based.
Data set [2] can be described thus: Chrom logD. In kind it is physicochemical.
Data set [3] can be described thus: Microsome half-life RLM. In kind it is in vitro ADME. To be noted: rat, liver microsomes.
Data set [4] in a line: PBS solubility. In kind it is physicochemical. To be noted: aqueous buffer.
Data set [5] addresses hERG (Homo sapiens, UniProt Q12809). Briefly: hERG Binding assay. For orientation: Block of hERG is tested as a sign of cardiac risk.

The record followed here is patent US20260217748A1, “IBOGAINE AND N[…] AND METHODS OF USE” (Atai Therapeutics, Inc., priority 2022, published 2026).

Converted amounts (≈) assume the structure as drawn.

Sequence of hERG (Q12809 whole entry): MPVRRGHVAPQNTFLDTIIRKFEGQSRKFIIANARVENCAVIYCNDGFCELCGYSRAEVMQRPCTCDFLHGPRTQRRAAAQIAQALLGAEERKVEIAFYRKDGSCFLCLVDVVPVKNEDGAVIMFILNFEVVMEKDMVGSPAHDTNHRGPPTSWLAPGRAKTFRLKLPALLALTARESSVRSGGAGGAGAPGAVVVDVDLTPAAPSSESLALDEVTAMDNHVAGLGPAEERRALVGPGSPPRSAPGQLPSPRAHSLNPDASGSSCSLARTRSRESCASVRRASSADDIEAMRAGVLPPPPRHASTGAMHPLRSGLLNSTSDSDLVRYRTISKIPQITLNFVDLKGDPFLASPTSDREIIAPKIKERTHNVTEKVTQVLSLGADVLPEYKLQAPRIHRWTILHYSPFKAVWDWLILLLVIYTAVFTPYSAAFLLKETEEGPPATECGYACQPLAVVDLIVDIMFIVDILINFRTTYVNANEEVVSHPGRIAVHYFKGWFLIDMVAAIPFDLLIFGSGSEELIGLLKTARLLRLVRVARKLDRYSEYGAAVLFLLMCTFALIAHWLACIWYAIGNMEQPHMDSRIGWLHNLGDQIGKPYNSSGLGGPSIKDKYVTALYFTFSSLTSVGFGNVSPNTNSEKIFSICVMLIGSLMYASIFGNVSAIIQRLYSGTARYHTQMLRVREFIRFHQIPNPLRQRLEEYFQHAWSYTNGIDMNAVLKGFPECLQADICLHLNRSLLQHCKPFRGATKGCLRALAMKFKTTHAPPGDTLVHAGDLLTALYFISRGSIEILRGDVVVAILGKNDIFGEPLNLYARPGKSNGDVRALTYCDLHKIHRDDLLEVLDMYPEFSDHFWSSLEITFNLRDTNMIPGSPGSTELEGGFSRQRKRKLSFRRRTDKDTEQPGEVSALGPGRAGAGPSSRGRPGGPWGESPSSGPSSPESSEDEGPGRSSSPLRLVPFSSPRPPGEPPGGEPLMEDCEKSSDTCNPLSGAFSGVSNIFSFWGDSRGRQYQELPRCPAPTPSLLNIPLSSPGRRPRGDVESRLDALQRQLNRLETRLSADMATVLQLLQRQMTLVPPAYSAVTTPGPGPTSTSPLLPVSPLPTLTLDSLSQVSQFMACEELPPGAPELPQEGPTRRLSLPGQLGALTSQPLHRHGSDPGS
Sequence of SERT (P31645 whole entry, species assumed): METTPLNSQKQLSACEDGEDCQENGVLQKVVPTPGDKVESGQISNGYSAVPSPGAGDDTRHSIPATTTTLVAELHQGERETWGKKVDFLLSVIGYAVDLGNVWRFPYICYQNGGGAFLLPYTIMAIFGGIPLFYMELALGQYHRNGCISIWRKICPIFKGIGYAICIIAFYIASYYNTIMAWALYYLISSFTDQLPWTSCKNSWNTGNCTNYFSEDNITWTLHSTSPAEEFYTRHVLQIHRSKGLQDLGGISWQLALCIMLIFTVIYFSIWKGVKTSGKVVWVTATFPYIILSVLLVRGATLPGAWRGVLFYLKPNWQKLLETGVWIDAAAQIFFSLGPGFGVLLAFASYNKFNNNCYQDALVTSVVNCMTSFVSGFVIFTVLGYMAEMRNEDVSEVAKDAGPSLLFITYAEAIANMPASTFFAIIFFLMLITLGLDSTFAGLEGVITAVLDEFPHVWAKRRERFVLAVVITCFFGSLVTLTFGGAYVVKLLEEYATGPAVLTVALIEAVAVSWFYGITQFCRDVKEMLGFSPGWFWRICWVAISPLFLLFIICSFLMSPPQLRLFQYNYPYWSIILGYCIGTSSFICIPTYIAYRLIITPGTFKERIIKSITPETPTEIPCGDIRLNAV

Turning to `CC[C@H]1CC2C[C@H]3c4[nH]c5ccc(OC(C)OC)cc5c4CC[N@@](C2)C13` (stereo partly drawn) [Compound 3, (6R,7S,9S,11S)-7-ethyl-2-(1-methoxyethoxy)-6,6a,7,8,9,10,12,13-octahydro-5H-6,9-methanopyrido[1′,2′:1,2]azepino[4,5-b]indole], the concentration for half-maximal inhibition (IC50) in data set [1] was 11.9 µM; in data set [5] it was more than 10 µM. In data set [2], this compound displayed a chromatographic logD of 4.9. The half-life was 4 min in data set [3] (+NADPH) and more than 200 min in data set [3] (−NADPH). In data set [4], this compound had a solubility of 245 µM (≈ 86.9 µg/mL).

One may read the IC50 as the midpoint of a concentration-inhibition curve. High values mean weaker potency in that assay, low ones greater potency in that assay. In general, chromatographic logD refers to lipophilicity estimated from chromatographic retention. The low end stands for lower lipophilicity, the high end for higher lipophilicity. The term half-life denotes the time in which the quantity being followed falls by half. A word on the solubility: it is how much of the substance goes into solution per volume. Low values mean a poorly soluble substance, high ones a readily soluble substance.
